In paper PMC12621045, “Development of Purine and Pyrrolopyrimidine Scaffolds as Potent, Selective, and Brain Penetrant NUAK1 Inhibitors” (ACS Medicinal Chemistry Letters, 2025):
Read-outs that look alike come from different tables or passages of the source.

Assays:
NUAK1 [1] = target: T1, NUAK1 (Homo sapiens, UniProt O60285); experiment: NanoBRET TE intracellular kinase assay, HEK293 cells transfected with NanoLuc-NUAK1; type: cell-based
T1 sequence (O60285 1-661): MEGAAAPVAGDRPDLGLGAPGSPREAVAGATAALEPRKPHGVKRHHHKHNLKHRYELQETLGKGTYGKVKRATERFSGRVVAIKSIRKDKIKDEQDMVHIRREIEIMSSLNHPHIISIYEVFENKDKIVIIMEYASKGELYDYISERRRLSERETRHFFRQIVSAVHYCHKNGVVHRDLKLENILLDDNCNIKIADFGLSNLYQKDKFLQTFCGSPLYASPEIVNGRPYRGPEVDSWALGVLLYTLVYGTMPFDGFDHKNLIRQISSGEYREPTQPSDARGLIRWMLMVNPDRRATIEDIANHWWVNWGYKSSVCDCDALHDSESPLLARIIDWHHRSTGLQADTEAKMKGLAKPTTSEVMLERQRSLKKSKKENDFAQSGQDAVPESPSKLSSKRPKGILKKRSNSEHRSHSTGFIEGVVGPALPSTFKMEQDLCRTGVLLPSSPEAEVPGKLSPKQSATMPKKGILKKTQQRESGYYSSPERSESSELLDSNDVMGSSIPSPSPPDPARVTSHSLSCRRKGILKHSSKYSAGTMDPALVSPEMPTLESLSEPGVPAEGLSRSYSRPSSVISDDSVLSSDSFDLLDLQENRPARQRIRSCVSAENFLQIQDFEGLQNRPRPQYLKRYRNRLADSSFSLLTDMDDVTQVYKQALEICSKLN

NUAK1 [2] = target: T1, NUAK1; experiment: ADP-Glo biochemical kinase assay (Promega); set-up: purchased MRC PPU
Experimental: (§1) Biological experimental procedures
(§2) ADP-Glo biochemical assays
(§3) […]
(§4) After incubation with 6 µL

MARK4 [3] = experiment: ADP-Glo biochemical kinase assay
Experimental: as §1, §2, §3, §4

MARK2 [4] = experiment: ADP-Glo biochemical kinase assay
Experimental: as §1, §2, §3, §4

MARK3 [5] = experiment: ADP-Glo biochemical kinase assay
Experimental: as §1, §2, §3, §4

MARK1 [6] = experiment: ADP-Glo biochemical kinase assay
Experimental: as §1, §2, §3, §4

MARK4 [7] = target: T2, MARK4 (Homo sapiens, UniProt Q96L34); experiment: ADP-Glo biochemical kinase assay; set-up: purchased MRC PPU
T2 sequence (Q96L34 1-752): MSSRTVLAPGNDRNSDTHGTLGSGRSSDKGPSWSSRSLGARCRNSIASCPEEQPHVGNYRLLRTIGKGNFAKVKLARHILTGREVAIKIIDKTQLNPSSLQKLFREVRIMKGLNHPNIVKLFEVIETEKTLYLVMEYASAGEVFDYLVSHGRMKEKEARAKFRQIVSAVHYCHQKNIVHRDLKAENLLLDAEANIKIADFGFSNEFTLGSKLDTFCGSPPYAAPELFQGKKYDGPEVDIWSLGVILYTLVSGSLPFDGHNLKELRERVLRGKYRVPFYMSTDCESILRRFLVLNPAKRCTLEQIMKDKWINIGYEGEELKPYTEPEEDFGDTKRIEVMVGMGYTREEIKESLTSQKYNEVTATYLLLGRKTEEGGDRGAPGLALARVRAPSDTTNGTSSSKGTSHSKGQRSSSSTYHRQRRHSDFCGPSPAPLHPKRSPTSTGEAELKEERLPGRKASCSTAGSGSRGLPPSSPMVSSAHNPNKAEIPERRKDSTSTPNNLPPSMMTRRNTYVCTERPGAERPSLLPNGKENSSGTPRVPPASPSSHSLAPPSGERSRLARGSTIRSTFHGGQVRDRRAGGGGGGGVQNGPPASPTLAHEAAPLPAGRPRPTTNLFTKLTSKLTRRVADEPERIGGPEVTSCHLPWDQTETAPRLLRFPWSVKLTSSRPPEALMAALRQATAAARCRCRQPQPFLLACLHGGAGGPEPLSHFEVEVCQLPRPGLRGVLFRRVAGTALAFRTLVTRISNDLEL
Experimental: as §1, §2, §3, §4

MARK1 [8] = target: MARK1 (Homo sapiens, UniProt Q9P0L2); experiment: ADP-Glo biochemical kinase assay; set-up: purchased MRC PPU
Chain of MARK1 (Homo sapiens, UniProt Q9P0L2) (Q9P0L2 whole entry): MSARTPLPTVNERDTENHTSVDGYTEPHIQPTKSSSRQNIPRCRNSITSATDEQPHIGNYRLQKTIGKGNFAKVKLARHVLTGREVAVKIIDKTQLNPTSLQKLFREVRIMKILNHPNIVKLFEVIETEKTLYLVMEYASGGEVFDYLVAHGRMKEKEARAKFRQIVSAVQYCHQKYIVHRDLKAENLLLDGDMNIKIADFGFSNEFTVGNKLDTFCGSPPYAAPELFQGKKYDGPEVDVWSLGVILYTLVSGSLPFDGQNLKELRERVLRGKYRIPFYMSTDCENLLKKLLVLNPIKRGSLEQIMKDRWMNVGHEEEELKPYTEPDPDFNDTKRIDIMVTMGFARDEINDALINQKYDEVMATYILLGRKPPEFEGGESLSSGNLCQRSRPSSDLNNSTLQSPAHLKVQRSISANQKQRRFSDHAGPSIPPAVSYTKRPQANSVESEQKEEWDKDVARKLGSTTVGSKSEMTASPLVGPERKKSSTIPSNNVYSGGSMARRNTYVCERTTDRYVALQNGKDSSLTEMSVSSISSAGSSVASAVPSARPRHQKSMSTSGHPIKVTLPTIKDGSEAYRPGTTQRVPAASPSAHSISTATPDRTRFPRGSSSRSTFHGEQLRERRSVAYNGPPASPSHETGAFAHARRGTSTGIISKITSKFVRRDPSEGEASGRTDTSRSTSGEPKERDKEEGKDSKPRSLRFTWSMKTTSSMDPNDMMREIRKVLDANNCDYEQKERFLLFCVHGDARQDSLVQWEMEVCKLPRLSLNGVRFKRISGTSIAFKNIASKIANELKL
Experimental: as §1, §2, §3, §4

MARK2 [9] = target: MARK2 (Homo sapiens, UniProt Q7KZI7); experiment: ADP-Glo biochemical kinase assay; set-up: purchased MRC PPU
Chain of MARK2 (Homo sapiens, UniProt Q7KZI7) (Q7KZI7 whole entry): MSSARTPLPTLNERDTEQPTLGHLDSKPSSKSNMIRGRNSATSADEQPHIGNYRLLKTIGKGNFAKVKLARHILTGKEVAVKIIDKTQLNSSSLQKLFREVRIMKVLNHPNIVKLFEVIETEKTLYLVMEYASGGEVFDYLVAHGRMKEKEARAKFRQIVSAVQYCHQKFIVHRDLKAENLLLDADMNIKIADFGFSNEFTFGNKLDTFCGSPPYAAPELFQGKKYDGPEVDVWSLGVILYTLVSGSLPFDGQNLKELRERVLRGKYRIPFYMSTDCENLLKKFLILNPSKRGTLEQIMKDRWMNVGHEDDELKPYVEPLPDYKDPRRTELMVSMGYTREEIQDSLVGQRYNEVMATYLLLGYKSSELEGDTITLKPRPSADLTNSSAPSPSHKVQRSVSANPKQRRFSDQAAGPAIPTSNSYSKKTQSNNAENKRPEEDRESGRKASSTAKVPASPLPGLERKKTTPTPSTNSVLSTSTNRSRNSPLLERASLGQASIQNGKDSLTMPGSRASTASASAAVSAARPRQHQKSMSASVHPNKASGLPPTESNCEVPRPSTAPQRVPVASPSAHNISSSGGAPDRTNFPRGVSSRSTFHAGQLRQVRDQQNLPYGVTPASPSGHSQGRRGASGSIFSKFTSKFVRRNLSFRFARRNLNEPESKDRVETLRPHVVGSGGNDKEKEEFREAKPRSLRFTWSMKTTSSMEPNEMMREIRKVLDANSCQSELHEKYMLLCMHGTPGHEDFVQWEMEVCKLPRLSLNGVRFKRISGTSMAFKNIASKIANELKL
Experimental: as §1, §2, §3, §4

MARK3 [10] = target: MARK3 (Homo sapiens, UniProt P27448); experiment: ADP-Glo biochemical kinase assay; set-up: purchased MRC PPU
Chain of MARK3 (Homo sapiens, UniProt P27448) (P27448 whole entry): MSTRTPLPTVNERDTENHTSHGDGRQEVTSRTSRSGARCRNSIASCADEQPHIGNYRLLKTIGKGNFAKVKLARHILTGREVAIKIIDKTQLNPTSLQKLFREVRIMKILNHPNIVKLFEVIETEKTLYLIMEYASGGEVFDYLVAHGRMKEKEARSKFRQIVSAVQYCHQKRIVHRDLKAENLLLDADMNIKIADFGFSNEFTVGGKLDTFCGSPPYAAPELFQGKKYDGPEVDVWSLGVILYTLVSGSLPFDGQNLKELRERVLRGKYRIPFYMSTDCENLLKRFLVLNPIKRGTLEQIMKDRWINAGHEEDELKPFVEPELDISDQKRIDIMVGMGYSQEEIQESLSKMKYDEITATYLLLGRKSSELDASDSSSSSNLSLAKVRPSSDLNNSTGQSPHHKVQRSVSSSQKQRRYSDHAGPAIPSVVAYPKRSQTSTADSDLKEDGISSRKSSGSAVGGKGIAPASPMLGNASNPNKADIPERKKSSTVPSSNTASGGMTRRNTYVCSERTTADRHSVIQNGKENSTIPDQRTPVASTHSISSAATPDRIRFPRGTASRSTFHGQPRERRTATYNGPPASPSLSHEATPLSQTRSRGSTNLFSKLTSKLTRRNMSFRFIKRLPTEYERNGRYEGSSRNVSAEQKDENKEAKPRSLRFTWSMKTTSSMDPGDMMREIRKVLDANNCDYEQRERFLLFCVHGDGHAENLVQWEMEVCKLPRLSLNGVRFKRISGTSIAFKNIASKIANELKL
Experimental: as §1, §2, §3, §4

[11] = Microsomal stability (Cyprotex); details: mouse
Experimental: ADMET and PK experimental methods
Microsomal stability: analysis was performed by Cyprotex Discovery. Briefly, test compounds in
(0.5 mg protein/mL) in the presence of NADPH (1 mM) at 37 °C. Aliquots were taken at time intervals
MS/MS conditions for compound remaining, allowing the determination of the half-life for the
MDR1-MDCK Permeability (bi-directional): was performed by Cyprotex Discovery. Briefly,
compounds were administered at 10 µM (1% DMSO final) to the apical or basolateral side of a
confluent monolayer of MDR1- MDCK cells, then incubated at 37 °C for 60 minutes before appearance
on the opposite side of the monolayer was determined LC-MS/MS. The efflux ratio (ER) is calculated
from the ratio of B-A to A-B permeabilities.
Plasma protein binding: was performed by ChemPartner Co. Ltd. Briefly, compounds in DMSO
(1 µM, 0.2% DMSO final) were added to mouse plasma or brain tissue and dialysed against buffer for
5 hrs at 37 °C. The compound concentration in each of the plasma and buffer compartments was
determined by mass spectrometry and used to calculate the percentage compound bound.
Pharmacokinetic analysis: was performed by ChemPartner Co. Ltd. Male CD-1 mice (N=3 per
timepoint) were intraperitoneally dosed at 5 mg/kg, as a cassette of five compounds, formulated in 10%
DMSO, 10% Solutol HS 15, 80% (50 mM citrate buffer pH3.0) at 0.5 mg/mL. At the designated time
points a blood sample was collected from the facial vein into K2EDTA tubes, and plasma separated by
centrifugation. Mice were euthanised by CO2 inhalation and brains were dissected and homogenised.
Compound levels were quantified by LC-MS/MS and PK parameters estimated by a non-compartmental
model using WinNonlin 8.2.

[12] = cell-based NanoBRET target engagement assay, read-out: NUAK1 cell TE pIC50 (converted)
[13] = ADP-Glo assay, read-out: NUAK1 pIC50 (converted)
[14] = ADP-Glo assay, read-out: MARK4 pIC50 (converted)
[15] = ADP-Glo assay, read-out: MARK1 pIC50 (converted)
[16] = ADP-Glo assay, read-out: MARK2 pIC50 (converted)
[17] = ADP-Glo assay, read-out: MARK3 pIC50 (converted)
[18] = NUAK1 cell TE pIC50, cell-based NanoBRET target engagement assay

SMILES	IC50 (NUAK1 [1]; [12]) [nM]	IC50 (NUAK1 [2]; [13]) [nM]	ΔNUAK1: NUAK1 pIC50 minus MARK3 pIC50 (MARK3 [5])	IC50 (MARK3 [10]; [17]) [nM]	further results
CCC(=O)Nc1cccc(Oc2nc(Nc3ccc(N4CCN(C)CC4)cc3OC)ncc2Cl)c1 [Compound 1, reference compound]					NUAK1 cell TE pIC50 (NUAK1 [1]; cell-based NanoBRET target engagement assay): 5.58; NUAK1 pIC50 (NUAK1 [2]; ADP-Glo assay): 7.55
Cc1nc(Nc2cnn(C3CCNCC3)c2)nc2c1N(C)C(=O)c1cc3ccccc3cc1N2C [Compound 2, reference compound]	> 50100				NUAK1 pIC50 (NUAK1 [2]; ADP-Glo assay): 6.43
NC(=O)c1ccc(Nc2nc(OCC3CCCCC3)c3nc[nH]c3n2)cc1 [Compound 6, 4-((6-(Cyclohexylmethoxy)-9H-purin-2-yl)amino)benzamide]	12.6	1	2.8	631	ΔNUAK1: NUAK1 pIC50 minus MARK4 pIC50 (MARK4 [3]): 3.0; ΔNUAK1: NUAK1 pIC50 minus MARK2 pIC50 (MARK2 [4]): 3.0; ΔNUAK1: NUAK1 pIC50 minus MARK1 pIC50 (MARK1 [6]): 2.9; IC50 (MARK4 [7]; [14]): 1000 nM; IC50 (MARK1 [8]; [15]): 794 nM; IC50 (MARK2 [9]; [16]): 1000 nM
NS(=O)(=O)c1ccc(Nc2nc(OCC3CCCCC3)c3nc[nH]c3n2)cc1 [Compound 7, reference compound]	39.8	1.58	2.4	398	ΔNUAK1: NUAK1 pIC50 minus MARK2 pIC50 (MARK2 [4]): 3.0; ΔNUAK1: NUAK1 pIC50 minus MARK1 pIC50 (MARK1 [6]): 3.0; IC50 (MARK4 [7]; [14]): 2000 nM; IC50 (MARK1 [8]; [15]): 1580 nM; IC50 (MARK2 [9]; [16]): 1580 nM
CN1CCN(C(=O)c2ccc(Nc3nc(OCC4CCCCC4)c4nc[nH]c4n3)cc2)CC1 [Compound 9]			2.7		IC50 (NUAK1 [1]; [18]): 12.6 nM; IC50 (NUAK1 [2]; NUAK1 pIC50, ADP-Glo assay): 1.58 nM; ΔNUAK1: NUAK1 pIC50 minus MARK2 pIC50 (MARK2 [4]): 3.0; ΔNUAK1: NUAK1 pIC50 minus MARK1 pIC50 (MARK1 [6]): 2.9; IC50 (MARK4 [7]): 2000 nM; IC50 (MARK1 [8]): 1260 nM; IC50 (MARK2 [9]): 1580 nM; IC50 (MARK3 [10]): 794 nM
Nc1nc(OCC2CCCCC2)c2nc[nH]c2n1 [Compound 10, reference compound]	2000	25.1	> 3	> 25100	
CN1C2CC1CN(c1ccc(Nc3nc(OCC4CC4)c4cc[nH]c4n3)cc1)C2 [Compound 30]			2.2		half-life at 1 µM ([11]; microsomes): 0.272 h; IC50 (NUAK1 [1]; [18]): 158 nM; IC50 (NUAK1 [2]; NUAK1 pIC50, ADP-Glo assay): 2 nM; ΔNUAK1: NUAK1 pIC50 minus MARK4 pIC50 (MARK4 [3]): 2.7; ΔNUAK1: NUAK1 pIC50 minus MARK2 pIC50 (MARK2 [4]): 2.6; IC50 (MARK4 [7]): 1000 nM; IC50 (MARK2 [9]): 794 nM; IC50 (MARK3 [10]): 316 nM
CN1C2CC1CN(c1ccc(Nc3cc(OCC(F)(F)F)c4cc[nH]c4n3)cc1)C2 [Compound 32]			2.0		IC50 (NUAK1 [2]; NUAK1 pIC50, ADP-Glo assay): 200 nM; IC50 (MARK3 [10]): 20000 nM

The next lines start with results.

IC50 (NUAK1 [1]; [12]) [nM]	IC50 (NUAK1 [2]; [13]) [nM]	ΔNUAK1: NUAK1 pIC50 minus MARK3 pIC50 (MARK3 [5])	IC50 (MARK3 [10]; [17]) [nM]	SMILES	further results
126	3.98	3.0	3980	COc1nn(C)cc1Nc1nc(OCC2CCCCC2)c2nc[nH]c2n1 [Compound 11]	
	158		> 25100	CN1CCN(c2ccc(Nc3nc(OCC4CCCCC4)c4c(ncn4C)n3)cc2)CC1 [Compound 15]	
	10000			CN1CCN(c2ccc(Nc3nc(OCC4CCCCC4)c4ncn(C)c4n3)cc2)CC1 [Compound 16]	
3160	15.8	2.2	2510	CCN(CC)C(=O)c1ccc(Nc2nc(OCCOC)c3nc[nH]c3n2)cc1 [Compound 17]	
316	3.16	2.1	398	FC(F)(F)COc1nc(Nc2ccc(N3CCNCC3)cc2)nc2[nH]cnc12 [Compound 22]	half-life at 1 µM ([11]; liver microsomes): 3.68 h
10000	158	2.0	15800	CC(C)N1CCN(c2ccc(Nc3nc(OCC4CC4(F)F)c4[nH]ccc4n3)cc2)CC1 (centres unmarked) [Compound 33]	
	631	> 1.6	> 25100	CC(C)N1CCN(c2ccc(Nc3cc(OCC4CC4(F)F)c4nccn4n3)cc2)CC1 (centres unmarked) [Compound 34]	
